Experimental data taken from PMC3857906, “Ligand-Specific Regulation of the Endogenous Mu-Opioid Receptor by Chronic Treatment with Mu-Opioid Peptide Agonists” (BioMed Research International, 2013).
Read-outs that look alike come from different tables or passages of the source.

Key:
[1] = Tail-flick (TF) antinociceptive assay after icv peptide administration; format: in vivo, rat; details: for treatment duration until behavioral tolerance complete: 10 μg icv twice daily, data not shown
Method: For intracerebroventricular (icv) peptide administration, the rats were implanted with a stainless steel Luer cannula (10 mm long) aimed at the right lateral cerebral ventricle under Nembutal (35 mg/kg, intraperitoneally) anesthesia. The stereotaxic coordinates were 0.2 mm posterior, 1.7 mm lateral to the bregma, and 3.7 mm deep from the dural surface, according to the atlas of Pellegrino et al.. Cannulas were secured to the skull with dental cement and acrylate. The experiments were started 5 days after icv cannulation. All icv treatments were delivered to freely moving animals to prevent unspecific effects. Upon conclusion of the experiments, 10 μL of methylene blue was injected into the ventricle of decapitated animals and the position of the cannula was inspected visually. Animals with improper cannula placement were excluded from the final statistical analysis.
The peptides were dissolved in artificial cerebrospinal fluid (CSF) and injected in a volume of 2 μL. Endomorphins were administered either acutely at the indicated doses (100 pg–20 μg) or chronically at 20 μg for 10 days (twice daily) and tested at the indicated times. Vehicle control groups obtaining CSF were used in all experiments, and no changes were detected in the antinociceptive response of the control group. […] Animals were killed 16 hrs after drug treatments by decapitation immediately followed by subcellular fractionation.
The original method of D'Amour was used to determine analgesia in the rat by measuring the time required to respond to a radiating heat stimulus. A beam light was focused on the tip of the tail, and the latency required for the rat to remove its tail was determined before (baseline) and after drug administration. The animals were tested at the times shown after injection of the peptides. The antinociceptive effect was expressed according to the equation: (TFn − TFo) × 100/TFmax − TFo, where TFo is the tail-flick latency before drug administration, TFn is the value of a repeated corresponding measurement after drug injection, and TFmax indicates the cutoff time which was set at 10 sec in our assays. Statistical analysis of the data of tail-flick antinociceptive test was made by ANOVA. For significant ANOVA values, groups were compared by Tukey's test for multiple comparisons with unequal cell size. A probability level, P < 0.05, was accepted to label significant differences.

[2] = molecular target: T1, mu-opioid receptors (coupling to G-proteins) (Rattus norvegicus, UniProt P33535); experiment: DAMGO-stimulated [35S]GTPγS binding in rat brain subcellular fractions (SPM, MI) after in vivo chronic opioid peptide treatment; format: biochemical; details: for effect of chronic treatment on G-protein coupling / [35S]GTPγS incorporation: 10 μg icv twice daily for 8 days
T1 construct: fresh forebrains of four rats were pooled, gently homogenized; from tissue; host or cells: rat forebrain, synaptic plasma membrane (SPM) and microsomal (MI) fractions, from vehicle- or peptide-treated animals
T1 sequence (P33535 whole entry): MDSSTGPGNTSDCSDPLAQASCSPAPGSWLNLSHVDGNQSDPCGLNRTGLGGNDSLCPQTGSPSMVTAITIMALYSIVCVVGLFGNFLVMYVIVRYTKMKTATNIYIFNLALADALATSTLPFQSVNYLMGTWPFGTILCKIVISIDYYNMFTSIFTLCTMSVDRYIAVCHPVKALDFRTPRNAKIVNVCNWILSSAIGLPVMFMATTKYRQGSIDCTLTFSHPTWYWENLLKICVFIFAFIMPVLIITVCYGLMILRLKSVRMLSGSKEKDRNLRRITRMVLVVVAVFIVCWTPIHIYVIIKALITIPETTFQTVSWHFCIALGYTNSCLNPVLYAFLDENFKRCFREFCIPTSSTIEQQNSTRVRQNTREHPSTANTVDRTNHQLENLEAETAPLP
Method: The peptides were dissolved in artificial cerebrospinal fluid (CSF) and injected in a volume of 2 μL. […] Animals were killed 16 hrs after drug treatments by decapitation immediately followed by subcellular fractionation.
Subcellular fractions of rat brains were purified as published. Briefly, fresh forebrains of four rats were pooled, gently homogenized in 10 volumes (v/w) of ice-cold buffer (5 mM Tris-HCl pH 7.4, 50 μM CaCl2, 0.5 mM dithiothreitol), and supplemented with 10% sucrose. All sucrose solutions were made in the above buffer. The homogenate was spun at 1,000 ×g for 10 min. The resulting pellet was resuspended in the above buffer and spun again. The combined supernatants were spun at 12,000 ×g for 20 min. The pellets were suspended in 10% sucrose and subjected to consecutive centrifugations at 20,000 ×g for 25 min and 14,000 ×g for 20 min twice resulting in crude synaptic plasma membranes (SPM). The resulting pellets were lysed followed by fractionation on a 10%, 28.5%, and 34% sucrose density step gradient that was spun at 100,000 ×g for 2 h. Highly enriched SPMs were obtained from the 28/34% interface. Crude microsomal (MI) fractions were obtained from the 12,000 ×g supernatant by consecutive centrifugations at 20,000 ×g for 25 min and 100,000 ×g for 1 h. MI fractions were purified on a 10% and 28.5% sucrose step gradient centrifuged at 100,000 ×g for 2 h and collected at 10/28.5% interface. SPM and MI fractions were diluted threefold with 50 mM Tris-HCl buffer and pelleted at 100,000 ×g for 1 h to remove sucrose. The resulting pellets were taken up in 50 mM Tris-HCl (pH 7.4) buffer to yield in 0.3–0.8 mg membrane protein/ml and were freshly used.
(§1) The assay was performed as published with slight modifications. Briefly, rat brain membrane fractions (≈10 μg of protein) were incubated with [^35S]GTPγS (0.05 nM) and 5-6 concentrations (10^−9−10^−4 M) of opioid peptides in the presence of 100 μM GDP in Tris-EGTA (50 mM Tris-HCl, 1 mM EGTA and 5 mM MgCl2; pH 7.4) buffer in a total volume of 1 mL for 60 min at 30°C. Nonspecific binding was determined with 10 μM GTPγS and subtracted. Bound and free [^35S]GTPγS were separated by vacuum filtration through Whatman GF/F filters using a Brandel M24-R Cell Harvester (Brandel, Gaithersburg, MD, USA). Filters were rapidly washed with 3 × 5 mL ice-cold 50 mM Tris-HCl (pH 7.4) buffer, air-dried, and counted in a toluene-based scintillation cocktail in a Wallac 1409 scintillation counter (Wallac, Turku, Finland). All assays were performed in triplicate and repeated at least three times. Curves were constructed and analyzed by fitting sigmoidal dose-response curves using the GraphPad Prism 4 program (GraphPad Prism Software Inc) to obtain potency (EC50, concentration of the ligand to give half-maximal effect) and efficacy (E max, % maximal stimulation over basal activity) values. Basal activities were measured in the absence of opioid ligands and set as 0%. The data reported are means ± S.E.M.

mu-opioid receptors [3] = molecular target: T2, mu-opioid receptors (Rattus norvegicus, UniProt P33535); experiment: [3H]DAMGO homologous displacement binding in rat brain subcellular fractions (SPM, MI) after in vivo treatment; parameters: fresh forebrains of four rats were pooled, gently homogenized; from tissue; host or cells: rat forebrain, synaptic plasma membrane (SPM) and microsomal (MI) fractions, from vehicle- or peptide-treated animals; details: chronic treatment, vs vehicle control
T2 sequence (P33535 whole entry): as above
Method: The peptides were dissolved in artificial cerebrospinal fluid (CSF) and injected in a volume of 2 μL. Endomorphins were administered either acutely at the indicated doses (100 pg–20 μg) or chronically at 20 μg for 10 days (twice daily) and tested at the indicated times. […] Animals were killed 16 hrs after drug treatments by decapitation immediately followed by subcellular fractionation.
Subcellular fractions of rat brains were purified as published. Briefly, fresh forebrains of four rats were pooled, gently homogenized in 10 volumes (v/w) of ice-cold buffer (5 mM Tris-HCl pH 7.4, 50 μM CaCl2, 0.5 mM dithiothreitol), and supplemented with 10% sucrose. All sucrose solutions were made in the above buffer. The homogenate was spun at 1,000 ×g for 10 min. The resulting pellet was resuspended in the above buffer and spun again. The combined supernatants were spun at 12,000 ×g for 20 min. The pellets were suspended in 10% sucrose and subjected to consecutive centrifugations at 20,000 ×g for 25 min and 14,000 ×g for 20 min twice resulting in crude synaptic plasma membranes (SPM). […]
Filters were rapidly washed with 3 × 5 mL ice-cold 50 mM Tris-HCl (pH 7.4) buffer, air-dried, and counted in a toluene-based scintillation cocktail in a Wallac 1409 scintillation counter (Wallac, Turku, Finland). […]

[4] = shown previously; cited from earlier work
[5] = molecular target: T3, mu-opioid receptors (G-protein activation) (Rattus norvegicus, UniProt P33535); experiment: Ligand-stimulated [35S]GTPγS functional assay in crude rat brain membranes; format: biochemical
T3 construct: from tissue; host or cells: rat brain without cerebella, crude membranes
T3 sequence (P33535 whole entry): as above
Method: as §1

mu-opioid receptors [6] = molecular target: T2, mu-opioid receptors; details: icv administration, in situ autoradiography; cited from earlier work

With Tyr-D-Ala-Gly-(NMe)Phe-CH2Cl [DAMCK] the “treatment duration until behavioral tolerance complete” value [1] was at most 8 days, the “effect of chronic treatment on G-protein coupling / [35S]GTPγS incorporation” value [2] was “attenuated G-protein coupling in the MI fraction” and the “increase in the density of mu-sites in the MI (light membrane) fraction” value (mu-opioid receptors [3]) was 40%. For the same molecule, the antinociception [4] was “about 80%” and the “duration of antinociception” value [4] was “apparently irreversible antinociception”.
For `C[C@@H](NC(=O)[C@@H](N)Cc1ccc(O)cc1)C(=O)NCC(=O)N(C)[C@@H](Cc1ccccc1)C(=O)NCCO` [DAMGO, Tyr-D-Ala-Gly-(NMe)Phe-Gly-ol], the “treatment duration until behavioral tolerance complete” value [1] was at most 8 days, the “effect of chronic treatment on G-protein coupling / [35S]GTPγS incorporation” value [2] was “did not cause any change” and the Emax ([2]; read-out: E max (% over basal) MI Treated) was 72 ± 9%. For the same molecule, the Emax ([2]; read-out: E max (% over basal) SPM Treated) was 130 ± 14%, the Emax ([2]; read-out: efficacy (E max) of DAMGO in control MI, MI of vehicle administered rats, % over basal) was 85 ± 9% and the Emax ([2]; read-out: efficacy (E max) of DAMGO in control SPM, SPM of vehicle administered rats, % over basal) was 95 ± 5%. For the same molecule, the “decrease in the density of surface mu-sites (SPM)” value (mu-opioid receptors [3]) was 22%, the antinociception [4] was “about 80%” and the “time of peak antinociceptive effect” value [4] was “about 30 min”. The “agonist character in [35S]GTPγS assay” value [5] was “full agonist”.
In the case of `COC(=O)/C=C/C(=O)N[C@@H]1CC[C@@]2(O)[C@H]3Cc4ccc(O)c5c4[C@@]2(CCN3CC2CC2)[C@H]1O5` [beta-funaltrexamine], the “reduction of the density of mu-opioid receptors throughout the brain” value (mu-opioid receptors [6]) is listed as 40–50%.
For `NC(=O)[C@H](Cc1ccccc1)NC(=O)[C@H](Cc1ccccc1)NC(=O)[C@H]1CCCC[C@H]1NC(=O)[C@@H](N)Cc1ccc(O)cc1` [ACHC-EM2, cis-1S,2R-aminocyclohexanecarboxylic acid^2-endomorphin-2], the “treatment duration until analgesic tolerance complete (antinociceptive effect ceased)” value ([1]; 20 μg icv twice daily, rat tail-flick) was at most 10 days, the “day by which decrease of antinociceptive effect became statistically significant vs day 1” value ([1]; 20 μg icv twice daily, tested 5 and 15 min after injection) was at most 5 days and the “time of peak acute antinociceptive effect” value ([1]; rat tail-flick, after icv injection) was 10 to 15 min. For the same molecule, the “time by which acute antinociceptive effect dissipated” value ([1]; rat tail-flick, following icv injection) was at most 40 min and the “increase in analgesic response compared to base-line values” ([1]; rat tail-flick, icv, lower doses, concentration-dependent) was 20–50%.
